Experiment [1] deals with triple-negative mammary carcinoma. Description: Combined inhibition of FKBP1A and PIN1 in triple-negative mammary carcinoma (tumor stem cell character, apoptosis induction). It counts as cell-based. The conditions noted are these: FKBP1A-specific siRNA and co-incubation with ATRA.
Experiment [2] deals with T1, FKBP1A (Homo sapiens, UniProt P62942).
T1 construct: The cells were then washed with PBS, lysed and the expression of FKBP1A was analyzed by western blotting; endogenous in cells; host or cells: MDA-MB-231
T1 sequence (P62942 whole entry): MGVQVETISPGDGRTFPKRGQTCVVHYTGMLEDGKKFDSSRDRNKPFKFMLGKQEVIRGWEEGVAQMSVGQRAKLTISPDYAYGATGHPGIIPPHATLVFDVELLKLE
As to the kind of experiment: Anti-tumor effect on tumor stem cell and EMT markers by PROTAC-mediated FKBP1A expression reduction. It counts as cell-based.

The subject of experiment [3] is breast tumor xenograft. The note with it: in vivo; cited from earlier work.
Experiment [4] has as its system endothelial and breast cancer cells. The note with it: cited from earlier work.
For experiment [5], the system named is SFRP2 and VEGF-stimulated in vitro tube formation. The conditions noted are these: cited from earlier work.

Consider 3 molecules from patent US20230133761A1, “INHIBITION OF FKBP1A FOR THE TREATMENT OF TRIPLE-NEGATIVE MAMMARY CARCINOMA” (Heinrich-Heine-Universität Düsseldorf, priority 2020, published 2023).

With `CC1=C(/C=C/C(C)=C/C=C/C(C)=C/C(=O)O)C(C)(C)CCC1` [ATRA, all-trans retinoic acid], the “Effect on reduction of tumor stem cell character and ability to induce apoptosis” value in experiment [1] is “strong synergistic effect”. For `CO[C@H]1C[C@@H]2CC[C@@H](C)[C@@](O)(O2)C(=O)C(=O)N2CCCC[C@H]2C(=O)O[C@H]([C@H](C)C[C@@H]2CC[C@@H](OCCOCc3cn(CCOCCOCCNc4cccc5c4C(=O)N(C4CCC(=O)NC4=O)C5=O)nn3)[C@H](OC)C2)CC(=O)[C@H](C)/C=C(\C)[C@@H](O)[C@@H](OC)C(=O)[C@H](C)C[C@H](C)/C=C/C=C/C=C/1C` (some centres unmarked) [FKBP12 PROTAC RC32], the “Anti-tumor effect on tumor stem cell and EMT markers compared to pure inhibition of the enzyme function of FKBP1A” value in experiment [2] is “stronger anti-tumor effect”. Regarding `C=CC[C@@H]1/C=C(\C)C[C@H](C)C[C@H](OC)[C@H]2O[C@@](O)(C(=O)C(=O)N3CCCC[C@H]3C(=O)O[C@H](/C(C)=C/[C@@H]3CC[C@@H](O)[C@H](OC)C3)[C@H](C)[C@@H](O)CC1=O)[C@H](C)C[C@@H]2OC` [tacrolimus], the “Breast tumor xenograft growth” value in experiment [3] is “attenuates breast tumor xenograft growth in vivo”. For the same molecule, the “Migration of endothelial and breast cancer cells” value in experiment [4] was “inhibit the migration of endothelial and breast cancer cells”. Also, the “SFRP2 and VEGF-stimulated in vitro tube formation” value in experiment [5] was “inhibit SFRP2 and VEGF-stimulated in vitro tube formation”.
